The source of these data is paper PMC6980506, “Comparative pharmacokinetics and pharmacodynamics of the advanced Retinol-Binding Protein 4 antagonist in dog and cynomolgus monkey” (PLoS ONE, 2020).

On the set-up of data set [1]: method as in PMID 26181715. To be noted: rat liver microsomes; cited from earlier work. In general terms: Liver microsomes are vesicles of endoplasmic reticulum, rich in cytochrome P450 enzymes.
Data set [2] has as its system plasma RBP4. The data set can be described thus: Plasma RBP4 lowering (ELISA) in cynomolgus monkey. The data set is classed as in vivo. As to the method: (§1) Pharmacokinetic studies were conducted in male beagle dogs and male cynomolgus monkeys at SRI International, Menlo Park, CA. General procedures for animal care and housing were in accordance with the National Research Council (NRC) Guide for the Care and Use of Laboratory Animals (1996) and the Animal Welfare Standards incorporated in 9 CFR Part 3, 1991 and complied with guidelines set forth by the ARVO Animal Statement for the Use of Animals in Ophthalmic and Vision Research. During the course of the PK experiments, cynomolgus monkeys were individually housed in stainless steel primary enclosures in an AAALAC-accredited facility. Animals were fed a commercial monkey chow, and supplemental food was provided (fresh fruits, vegetables, seeds, and nuts). Reverse osmosis-purified drinking water was available at all times. Cynomolgus monkeys were maintained on a 12:12 hour light:dark cycle at the 64–84°F temperature and 30–70% humidity. Monkeys had access to enrichment opportunities (grooming devices, foraging devices, activity panels and mirrors) and were provided auditory stimuli and human interaction enrichment throughout the study. Blood samples were collected by venipuncture of a peripheral vein. Animals were acclimated to the squeeze back mechanism in their home cage by repeated, short periods of restraint during general husbandry procedures for at least 2 weeks prior to dosing. Animal were not removed from their cages for collection, and no anesthesia/analgesic agents were used for blood collection. […] For PK experiments, beagle dogs were individually housed in enclosed run (≥ 4 ft x 6 ft). Dogs were exposed to their daily ration of food, Harlan Teklad 2025C Certified Global 25% Protein Dog Diet. Water was provided from the public water supply (municipal tap water) ad libitum. Dogs were maintained on a 12:12 hour light:dark cycle at the 72–73°F temperature and 40–71% humidity. Every effort was made to minimize, if not eliminate, pain and suffering in all animals in this study. No restraining devices were used in blood collecting procedures. Dogs were gentle hand-held to restrain by trained technicians with the dogs foreleg extended for sample collection of blood from cephalic vein. Animals were awake during blood sample collection with no anesthesia/analgesic agents used, and positive reinforcement by the technician was provided following collection. […] All dogs were released back to the colony after the study was completed. Male beagle dogs and male cynomolgus monkey received a single i.v. dose of a test compound at 0.5 mg kg^−1 (dog) and 1 mg kg^−1 (monkey) or a single p.o. dose of a test compound of at 2 mg kg^−1 (dog) and 5 mg kg^−1 (monkey). The number of animals that was used in PK experiments is 3 per study group. Intravenous administration vehicle was 3% DMA/45% PEG300/12% ethanol/40% sterile water; p.o. vehicle was 2% Tween 80 in 0.9% saline. Blood was collected from dogs and monkeys at pre-dose and at 5, 15 and 30 min, and 1, 2, 4, 6, 8, 12, 24, 36 and 48 h post-dose in the i.v. arms and at 15 and 30 min, and 1, 2, 4, 6, 8, 12, 24, 36 and 48 h post-dose in the p.o. arm. […] Following protein extraction with acetonitrile, compound concentrations in plasma were measured by LC-MS/MS. The plasma drug level data were analyzed using WinNonlin software package; Model 201 (for i.v. bolus administration);was used for the analysis of i.v. data, and Model 200 (for extravascular administration) was used for the analysis of the p.o. data. […]
On the technique in general: In an ELISA, binding on a coated surface is turned into a signal by an enzyme label.

Data set [3] is described as follows: Metabolic stability in dog liver microsomes. The data set is classed as in vitro ADME. The conditions noted are these: male, beagle, pH 7.4, 1 mg/mL, read-out: Microsomal Stability (% Remaining at 30 min). As to the method: (§2) All measurements were done in duplicate. Pooled mixed gender human donor microsomes, male beagle dog microsomes and male cynomolgus monkey were obtained from BioIVT (Baltimore, MD). […] A mixture containing 50 mM potassium phosphate buffer pH 7.4 and 1 mg/mL liver microsomes was pre-warmed for 10 min at 37°C in a shaking water bath, followed by the addition of test compound. Final DMSO concentration in the reaction mix was 0.1%. […] The final volume of the reaction mixture was 800 μL, containing 1 mg/mL liver microsomes, and 1 μM test compound. Aliquots (100 μL) of reaction mixtures were removed from the incubation plate at pre-defined timepoints and mixed with 150 μL of ice-cold acetonitrile, incubated on ice for 15 min, and samples were centrifuged (3,600 rpm, 10 min, 4°C) to precipitate protein. The supernatants were diluted 1:1 (v/v) with water containing the internal standard and subjected to the LC/MS analysis.

The test system of data set [4] is plasma RBP4. As to the kind of experiment: Plasma RBP4 lowering (ELISA) in beagle dog. The data set is classed as in vivo. How it is done:
as §1

Data set [5] in a line: Metabolic stability in cynomolgus monkey liver microsomes. The data set is classed as in vitro ADME. To be noted: male, pH 7.4, Cyno liver microsomes, 1 mg/mL, read-out: Microsomal Stability (% Remaining at 30 min). As to the method: as §2
Data set [6] can be described thus: Metabolic clearance in cynomolgus monkey hepatocytes. The conditions noted are these: male, cryopreserved hepatocytes, Cyno hepatocytes, read-out: Hepatocyte CLint (intrinsic clearance). The data set is classed as in vitro ADME. As to the method:
(§3) All measurements were done in duplicate. Testosterone and 7-hydroxycoumarin were used as positive controls. Pooled cryopreserved human hepatocytes, cryopreserved male beagle dog hepatocytes, and cryopreserved male cynomolgus monkey hepatocytes were obtained from BioIVT (Baltimore, MD). Compound at 1 μM was incubated with 1 x 10^6 cells. Final DMSO concentration in the reaction mix was 0.1%. Aliquots (100 μL) of reaction mixtures were removed from the incubation plate at different timepoints and mixed with 150 μL of ice-cold acetonitrile. After incubation on ice for 15 min, the samples were centrifuged (3,600 rpm, 10 min, 4°C) to precipitate protein. The supernatants were diluted 1:1 (v/v) with water containing internal standards and subjected to the LC/MS analysis. Hepatic clearance was calculated using the well-stirred liver model

Data set [7] in a line: Metabolic clearance in dog hepatocytes. The data set is classed as in vitro ADME. To be noted: male, beagle, cryopreserved hepatocytes, read-out: Hepatocyte CLint (intrinsic clearance). How it is done: as §3
For data set [8], the system named is PXR. Set-up: method as in PMID 26181715. To be noted: cited from earlier work.
Data set [9] relates to serum RBP4. Set-up: method as in PMID 29871924. The conditions noted are these: mice; cited from earlier work.
Data set [10] deals with cytochrome (CYP) P450 enzymes. Set-up: method as in PMID 26181715. To be noted: all standard CYP P450 enzymes; read-out: CYP inhibition IC50; cited from earlier work.

Broadly, the amount remaining is what is left of the initial amount, in per cent. One may read the hepatocyte CLint as the capacity of the preparation to metabolise the compound, expressed as a volume cleared per time. Broadly, the IC50 is the midpoint of a concentration-inhibition curve. Take `Cc1cc(C(=O)O)nc(N2C[C@H]3C[C@@H](c4ccccc4C(F)(F)F)C[C@H]3C2)n1` [BPN-14136]: the “stability in liver microsomes, % remaining at 30 min” value in [1] is given as above 90%. The “plasma RBP4 reduction” value in data set [2] (single 1 mg kg^−1 i.v. dose) amounted to 84%. Further, the RBP4 reduction in data set [2] (single 5 mg kg^−1 oral dose, 24 h) is on record as 97%; in data set [2] (single 5 mg kg^−1 oral dose, 36 h), 94%; in [2] (single 5 mg kg^−1 oral dose, 48 h), 91%. Also, the “maximum decrease in plasma RBP4” value in [2] (single 5 mg kg^−1 oral dose, at 12 hours after dosing) was 99%. Also, the fraction remaining at 0.5 h, 1 μM is 93% in data set [3] and 95% in data set [5]. Besides, the “plasma RBP4 lowering” value in data set [4] (single 0.5 mg kg^−1 i.v. dose) came out at 50%. Moreover, the “reduction of RBP4” value was 53% in data set [4] (single 2 mg kg^−1 oral dose, 24 h); 42% in data set [4] (single 2 mg kg^−1 oral dose, 36 h); 39% in data set [4] (single 2 mg kg^−1 oral dose, 48 h). In data set [4] (single 2 mg kg^−1 oral dose, at 8 hours post-dosing), the “maximal plasma RBP4 reduction” value was determined as 60%. In addition, the intrinsic clearance (hepatocyte CLint) at 1 μM was 0.7 µL/min/1e6 cells in data set [6] and below 0.7 µL/min/1e6 cells in [7]. In [8], the PXR activation result is listed as “no PXR activation”. Further, the “serum RBP4 lowering” value in [9] is listed as 90%. Also, the IC50 in data set [10] was above 34 µM.
